Tests used:
Tregs [1] = test: Treg trans-endothelial migration and chemotaxis transwell assays; assay type: cell-based, mouse; conditions: Tregs pre-treated with drug for 4 hours; through IFN-γ-treated EC monolayers or in response to CCL22 / CXCL10
Description: FIG. 1. Glycolysis fuels Treg migration. Ex vivo expanded Tregs pre-treated with the indicated drugs or vehicle for 4 hours were left to migrate through 3 μm-pore transwells layered with IFN-γ-treated syngeneic EC monolayers (A-B) or in response chemokine CCL22 through bare filter 5 μm-pore transwells (C-D). Results are expressed as percentage of migrated cells after 24 hours (A-B, n=4, N=2) or at the indicated time-points (C, n=3)±SD. The fold increase in migration was calculated by dividing experimental migration by spontaneous migration measured at 6 hours in two experiments of identical design performed in triplicates±SD.
FIG. 2. Activated Treg phenotype and function and effect of exposure to metabolism-modifying drugs. Tregs were expanded as previously described (Fu et al., 2014). A-B Tregs were treated with the indicated metabolism-targeting drugs for 4-6 hours and extensively washed. Migration of drug-exposed Tregs in response to CXCL10 (300 ng/ml) was assessed by a transwell-based assay. Results are expressed as the mean percentage of migrated cells at the indicated time points±SD. Data obtained at 6 hours from three independent experiments of identical design and normalized by spontaneous migration±SD are shown in panel B. *P<0.05.
FIG. 5. Tregs were treated with the indicated metabolism-targeting drugs for 4-6 hours, extensively washed and cultured overnight in medium alone. Migration of drug-exposed Tregs in response to CCL22 (300 ng/ml, A-B) CXCL10 (300 ng/ml, C-D) was assessed by a 6 hr chemokinesis transwell assay ([…]). Results are expressed as the mean percentage of migrated cells in a typical experiment performed in triplicate±SD (A, C). […]
Lymphocyte trans-endothelial migration and chemotaxis assays. […] The number of migrated T cells was determined by a hemocytometer counting of the cells present in the well media at different time points over a 24-h period. […] The number of migrated cells was determined by a hemocytometer.

Tregs [2] = test: T cell recruitment in the peritoneum (labelled drug-treated Tregs injected into IFN-γ-treated syngeneic recipients); assay type: in vivo, mice; conditions: for Treg migration / trafficking in vivo: drug-treated PKH26-labelled Tregs injected i.v. into recipients given IFN-γ i.p. 48 hours earlier, harvested after 24 hours
Description: FIG. 3. Drug- or vehicle-treated Tregs labeled with the fluorescent intravital dye PKH26 were injected i.v. into syngeneic recipients treated with IFN-γ i.p. 48 hours earlier. Cells were harvested from the indicated tissues after 24 hours and analyzed by flow cytometry. Representative dot plots from 3 animals are shown in panels A and C. The mean absolute number of labeled cells recovered in 4 animals±SD is shown in panels B and D. (N=1)
(§1) FIG. 20. A: AZD1656 (GCK activator, 1 μM) and vehicle-treated Tregs (2 hours in insulin-free medium) were labeled with different intravital fluorescent dyes, and co-injected into syngeneic recipients that had received IFN-γ i.p. 48 hours earlier. Cells were recovered from the peritoneum or spleen after 24 hours and analyzed by flow cytometry. Representative dot plots are shown. The bar graphs indicate mean absolute number of labeled cells retrieved±SD (n=4 N=2). B-C: expression of PCNA by Tregs stimulated with allogeneic DCs following treatment with either AZD1656 (B) or Clotrimazole (CLT, 1 μM, 2 hours, C) or vehicle alone was measured by flow cytometry. NS, non-stimulated control Tregs. Representative histograms are shown. (n=3, N=3).
FIG. 21. A: ECAR of Treg cells activated with recombinant ICAM-1 or Fc control. CLT or vehicle, as well as other glycolysis-affecting drugs were added as indicated. B: CLT- or vehicle-treated Tregs underwent CD28 or isotype-matched antibody-stimulation, labelled with different intravital fluorescent dyes and injected i.v. in syngeneic recipients that had received IFN-γ i.p. 48 hours earlier. Cells were recovered from the peritoneum (P) or spleen (S) after 24 hours and analyzed by flow cytometry. Representative dot plots are shown. The column graphs indicate mean absolute number of labeled cells retrieved±SD (n=3 N=2). * p<0.05 ***p<0.005; ****p<0.001.
T cell recruitment in the peritoneum. To observe in vivo recruitment of T cells we used the previously described model of T cell recruitment (Mirenda et al., 2007). Either PKH26 or CFSE or DDAO-SE-labelled T cells (10^7) were injected intravenously (i.v.) into mice that hd received IFN-γ (600U) via intraperitoneal injection (i.p.) 48 to 72 hours earlier. Labeled T cells recovered via peritoneal lavage were analyzed 16 hours later using flow cytometry. In addition, localization of Tregs to the spleen, where entry occurs in a passive manner (Fu et al., 2016), was analyzed to ensure that similar numbers/proportion of labeled cells were injected or co-injected in all recipients (internal control).

Tregs [3] = test: PCNA expression by Tregs stimulated with allogeneic DCs (flow cytometry); assay type: cell-based, mouse; conditions: 1 μM, 2 hours
Description: as §1
Intracellular staining. For intracellular Foxp3 staining, eBioscience Anti-Mouse/Rat Foxp3 Staining Set APC (clone FJK-165, Thermo Fisher Scientific Cat #17-5773-82) kit was used. Cells were resuspended (10^7/ml) and stained with surface antigens as mentioned above and then fixed/permeabilized for 30 minutes at 4° C. using Fixation/Permeabilization working solution made from mixing 1 part of the fixation/permebilization concentrate (eBioscience, Cat #00-5123) to 3 parts of the fixation/permebilization diluent (eBioscience, Cat #00-5223). […]

B6Kd skin allograft = test: Survival of B6Kd-derived skin grafts transplanted in C57BL/6 recipients; assay type: in vivo, C57BL/6 mice; conditions: 10 mg/kg twice daily (20 mg/kg daily) for 2 weeks after transplantation
Description: C57B16 mice received a B6Kd skin graft or syngeneic skin as a control. […] To establish the selectivity of GCK usage by Tregs to sustain their motility, we compared the effect of pharmacological activation of GCK on the survival of B6Kd-derived skin grafts transplanted in C57BL/6 recipients. […] This schedule was designed in order to promote migration of endogenous Tregs during the early stages of the alloresponse. Control groups received saline solution with vehicle alone.

Tregs [4] = test: ECAR of Treg cells activated with recombinant ICAM-1; assay type: cell-based, mouse; conditions: Tregs activated with recombinant ICAM-1
Description: A: ECAR of Treg cells activated with recombinant ICAM-1 or Fc control. CLT or vehicle, as well as other glycolysis-affecting drugs were added as indicated. […] Measurement of ECAR and OCR. Real time bioenergetics analysis of extracellular acidification rates (ECAR) and oxygen consumption rates (OCR) of T cells subjected to antibody stimulation was performed using the XF analyzer (Seahorse biosciences). T cells were cultured in serum free, unbuffered XF assay medium (Seahorse biosciences, Cat #102365-100) for 1 hour. The cells were then seeded (6×10^5/well) into the seahorse XF24 cell plates for analysis. Perturbation profiling of the use of metabolic pathways by T cells was achieved by the addition of oligomycin (1 μM), FCCP (1 μM), Antimycin A (1 μM), rotenone (1 μM), D-glucose (10 mM), 2-Deoxy-D-glucose (2DG, 50 mM; all from Seahorse biosciences, Cat #103020-100 and 103015-100). Experiments with the Seahorse system were done with the following assay conditions: 2 min mixture; 2 minutes wait; and 4-5 min measurement. Metabolic parameters were calculated. Experiments were done in at least triplicate wells.

[5] = tested on: CD3/CD28-stimulated Tconv cells; test: ECAR and OCR fluxometry (Seahorse) of anti-CD3 plus anti-CD28 stimulated CD4+ T cells; assay type: cell-based, mouse
Description: Real time analysis of the ECAR and OCR of CD4+ T cells stimulated for 24 hours with anti-CD3 plus anti-CD28 antibodies was performed using fluxometry. Wells were injected first with CLT or Vehicle. A second injection followed at the time point indicated (dashed line) introducing D-glucose into the wells. Subsequently, modulators of glycolysis (A) or cellular respiration (B) were sequentially injected at the indicated time points. […] OCR=Oxygen Consumption Rate: indirect measure of mitochondrial respiration and fatty acid oxidation (FAO). Measurement of ECAR and OCR. Real time bioenergetics analysis of extracellular acidification rates (ECAR) and oxygen consumption rates (OCR) of T cells subjected to antibody stimulation was performed using the XF analyzer (Seahorse biosciences). T cells were cultured in serum free, unbuffered XF assay medium (Seahorse biosciences, Cat #102365-100) for 1 hour. The cells were then seeded (6×10^5/well) into the seahorse XF24 cell plates for analysis. Perturbation profiling of the use of metabolic pathways by T cells was achieved by the addition of oligomycin (1 μM), FCCP (1 μM), Antimycin A (1 μM), rotenone (1 μM), D-glucose (10 mM), 2-Deoxy-D-glucose (2DG, 50 mM; all from Seahorse biosciences, Cat #103020-100 and 103015-100). […] Metabolic parameters were calculated. […]

SMILES | Treg migration / motility in vitro (Tregs [1]) | Treg migration / trafficking in vivo (Tregs [2]) | Treg division (PCNA expression / upregulation) (Tregs [3]) | also measured
O=CC[C@@H](O)[C@H](O)[C@H](O)CO [2-DG, 2-deoxyglucose] | migrated inefficiently | migrated inefficiently | – | –
COC[C@H](C)Oc1cc(Oc2cnc(C(=O)N3CCC3)cn2)cc(C(=O)Nc2cnc(C)cn2)c1 [AZD1656, 3-[5-(azetidine-1-carbonyl)pyrazin-2-yl]oxy-5-[(2S)-1-methoxypropan-2-yl]oxy-N-(5-methylpyrazin-2-yl)benzamide] | – | – | did not affect | Skin graft rejection (B6Kd skin allograft): significantly delays; Treg migration to the inflamed tissue (Tregs [2]; Tregs treated with 1 μM for 2 hours in insulin-free medium, co-injected with vehicle-treated Tregs, peritoneum after 24 hours): significantly enhanced
Clc1ccccc1C(c1ccccc1)(c1ccccc1)n1ccnc1 [CLT, Clotrimazole] | – | – | effective at inhibiting | rICAM-1-mediated induction of glycolysis (ECAR) (Tregs [4]): did not affect; Glycolytic flux (ECAR) [5]: inhibits; Respiration (OCR) [5]: inhibits; Treg migration to inflamed peritoneum in vivo (Tregs [2]; drug-treated Tregs with CD28 or isotype antibody stimulation, injected i.v., recovered after 24 hours): did not affect
CCOC(=O)[C@@]1(CCCCCCOc2ccc(Cl)cc2)CO1 [Etomoxir] | Treg migration does not require fatty acid oxidation | – | – | –
CN(C)C(=N)N=C(N)N [metformin] | increased Treg motility | increased | – | –
